Experimental data published in patent US11168087B2, “Substituted imidazo[1,2-b]pyridazines, substituted imidazo[1,5-b]pyridazines, related compounds, and their use in the treatment of medical disorders” (BIAL—R&D Investments, S.A., priority 2016, dated 2021).

Molecular target: T1, glucocerebrosidase (Gcase) (Homo sapiens, UniProt P04062)
T1 construct: micellar solution containing 10 nM GCase and 100 nM saposin C
T1 sequence (P04062 40-536): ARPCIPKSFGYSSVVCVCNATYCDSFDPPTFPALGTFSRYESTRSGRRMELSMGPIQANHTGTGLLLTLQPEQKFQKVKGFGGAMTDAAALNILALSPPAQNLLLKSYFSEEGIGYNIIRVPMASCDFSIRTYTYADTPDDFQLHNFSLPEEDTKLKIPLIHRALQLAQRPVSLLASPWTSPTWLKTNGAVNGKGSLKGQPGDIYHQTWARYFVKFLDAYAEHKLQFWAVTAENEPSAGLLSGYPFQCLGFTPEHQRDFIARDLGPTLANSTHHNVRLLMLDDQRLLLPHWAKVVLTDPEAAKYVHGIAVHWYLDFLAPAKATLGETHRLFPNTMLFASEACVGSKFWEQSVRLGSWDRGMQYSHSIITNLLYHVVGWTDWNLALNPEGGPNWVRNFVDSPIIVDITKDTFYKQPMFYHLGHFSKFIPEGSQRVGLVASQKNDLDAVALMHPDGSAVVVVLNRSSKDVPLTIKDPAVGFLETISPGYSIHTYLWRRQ
Test: Glucocerebrosidase (Gcase) activation assay, 4-methylumbelliferyl-beta-D-glucopyranoside substrate, with saposin C
Assay type: biochemical
Conditions: 0.25 h; for activation at 0.1 µM: read-out: Percent Gcase Activation 0.1 μM Test Compound; for activation at 1 µM: read-out: Percent Gcase Activation 1 μM Test Compound
Procedure: The ability of exemplary compounds to activate glucocerebrosidase (Gcase) was measured.
A 484 μL aliquot of a 1.0 mg/mL solution of phosphatidylserine (PS) (Sigma P7769) in chloroform was evaporated under a stream of nitrogen for 1 hour. The lipid film was dissolved over 4 minutes of vigorous vortexing in 40 mL of 176 mM K2HPO4/50 mM citric acid (pH 4.7) containing 7.5 μL of triton X-100, resulting in a mixed micellar preparation with a composition of 0.32 mM triton and 0.37 mol % PS. 4-Methylumbelliferyl-beta-D-glucopyranoside (ACROS-337025000) was dissolved in the micellar solution to a final concentration of 2 mM for use as the reaction substrate.
Test compounds were diluted to the desired concentrations with dimethylsulfoxide (DMSO) from 10 mM stocks, and 0.41 μL of the DMSO compound mixture was added to 100 μL of micellar solution containing 10 nM GCase and 100 nM saposin C (Enzo ALX-201-262-C050). Pre-incubation was allowed to occur for 30 minutes at room temperature, after which the reaction was initiated by combining 25 μL of substrate solution with 25 μL of compound/GCase/saposin mixture. The reaction proceeded for 15 minutes at room temperature and was stopped by adding 150 μL of 1M glycine, pH 12.5. The endpoint of the reaction was monitored by measuring fluorescence intensity (excitation: 365 nm; emission: 440 nm) on a SpectraMax i3 instrument (Molecular Devices). Test compounds were screened at 1.0 and 0.1 μM final concentration, and subsequent 8-point dose response curves were obtained using 3-fold dilutions from a maximum final concentration of 5 μM.
The symbol “+” indicates less than 5% Gcase activation; the symbol “++” indicates Gcase activation in the range of 5% up to 20%; and the symbol “+++” indicates Gcase activation greater than 20%.

| Structure (SMILES) | activation at 0.1 µM [%] | activation at 1 µM [%] |
| --- | --- | --- |
| COc1cccc(-c2cc(C)c3ncc(C(=O)NC(C4CC4)C(F)(F)F)n3n2)c1 (stereo not drawn) | > 20 | > 20 |
| Cc1cc(-c2cncc(Cl)c2)nn2c(C(=O)N[C@H](C3CC3)C(F)(F)F)cnc12 | > 20 | > 20 |
| Cc1cc(-c2ccc(F)cc2C#N)nn2c(C(=O)NC(C)C(F)(F)F)cnc12 (stereo not drawn) | 5 to 20 | > 20 |
| Cc1cc(C#N)c(-c2cc(C)c3ncc(C(=O)N[C@H](C)C(F)(F)F)n3n2)o1 | 5 to 20 | > 20 |
| Cc1cc(-c2c(F)cccc2C#N)nn2c(C(=O)N[C@@H](C)C(F)(F)F)cnc12 [(S)-6-(2-Cyano-6-fluorophenyl)-8-methyl-N-(1,1,1-trifluoropropan-2-yl)imidazo[1,2-b]pyridazine-3-carboxamide] | 5 to 20 | > 20 |
| Cc1cc(C)c2scc(C(=O)NC(C)(C)C3CC3)c2n1 | > 20 | > 20 |
| Cc1cc(-c2ccc(F)cc2C#N)nn2c(C(=O)N[C@@H](C)C3CC3)ncc12 [(S)-2-(2-Cyano-4-fluorophenyl)-N-(1-cyclopropylethyl)-4-methylimidazo[1,5-b]pyridazine-7-carboxamide] | 5 to 20 | > 20 |
| Cc1cc(-c2ccc(F)cc2)nn2c(C(=O)N[C@@H](C)C3CC3)nnc12 | < 5 | < 5 |
| CCC(NC(=O)c1nsc2c(C)cc(C)nc12)c1ccccc1 (stereo not drawn) [5,7-Dimethyl-N-(1-phenylpropyl)isothiazolo[4,5-b]pyridine-3-carboxamide] | 5 to 20 | > 20 |
| CCC(NC(=O)c1cnc2c(C)cc(C)nn12)c1ccccc1 (stereo not drawn) | < 5 | > 20 |
| Cc1cc(N2CC(C(C)C)OC2=O)nn2c(C(=O)N[C@H](C3CC3)C(F)(F)F)cnc12 (stereo partly drawn) [N—((R)-1-Cyclopropyl-2,2,2-trifluoroethyl)-6-(5-isopropyl-2-oxooxazolidin-3-yl)-8-methylimidazo[1,2-b]pyridazine-3-carboxamide] | 5 to 20 | > 20 |
| Cc1cc(-c2ccccn2)nc2c(C(=O)NC(C3CC3)C(F)(F)F)nsc12 (stereo not drawn) | < 5 | 5 to 20 |
| Cc1cc(C)c2occ(C(=O)NC3CCCc4ccccc43)c2n1 (stereo not drawn) [5,7-Dimethyl-N-(1,2,3,4-tetrahydronaphthalen-1-yl)furo[3,2-b]pyridine-3-carboxamide] | > 20 | > 20 |
| Cc1cc(-c2cc(C)c3ncc(C(=O)N[C@@H](C4CC4)C(F)(F)F)n3n2)sn1 | 5 to 20 | > 20 |
| Cc1cc(-c2sccc2C#N)nn2c(C(=O)N[C@@H](C3CC3)C(F)(F)F)cnc12 | > 20 | > 20 |
| CCCCCO[C@H]1CC[C@H](NC(=O)c2cnc3ccc(Cl)nn23)CC1 | < 5 | 5 to 20 |
| Cc1cc(-c2ccc3ocnc3c2)nn2c(C(=O)N[C@@H](C3CC3)C(F)(F)F)cnc12 | > 20 | > 20 |
| Cc1cc(-c2ccc(F)cc2)nn2c(C(=O)NC(C)(C)C3CC3)ncc12 | > 20 | > 20 |
| Cc1cc(-c2ccns2)nn2c(C(=O)NC(C3CC3)C(F)(F)F)cnc12 (stereo not drawn) | 5 to 20 | > 20 |
| Cc1cc(C)c2onc(C(=O)NC(C)(C)C3CC3)c2n1 [N-(2-Cyclopropylpropan-2-yl)-5,7-dimethylisoxazolo[4,5-b]pyridine-3-carboxamide] | 5 to 20 | > 20 |
| Cc1cc(-c2ccc(F)cc2C#N)nn2c(C(=O)N[C@@H](C3CC3)C(F)(F)F)cnc12 | > 20 | > 20 |
| Cc1cc(-c2ccc3ocnc3c2)nn2c(C(=O)NC(C)C3CC3)cnc12 (stereo not drawn) | > 20 | > 20 |
| C#CC(C)(C)NC(=O)c1cnc2c(C)cc(-c3ccns3)nn12 | < 5 | > 20 |
| O=C(Nc1ccc2c(c1)CCC2)c1cnc2ccc(Cl)nn12 | < 5 | 5 to 20 |
